Assays:
PMA-induced ear swelling = assay: Murine ear inflammation assay, PMA; format: in vivo, mouse; settings: 25 mg/kg i/p; for Change in ear thickness (mean ± SD, ×0.01 mm): 5 hr after PMA
Procedure: (§1) Groups of 5-6 female BALB/c mice (ARC, WA, Australia), weighing 15-21 g were injected intraperitoneally (i/p) with selected compounds of the formula (I) at 25 mg/kg delivered in polyethylene glycol (PEG) 400: phosphate buffered saline (PBS) 1:1 or ethanol: propanediol:PBS 4:9:7 either 30 min prior to or immediately before the inflammogen was applied to the ears. Mice were anaesthetised using isoflurane and baseline thickness of both ears was measured using a spring micrometer. Each mouse received a total of […] of either AA in ethanol (50 mg/ml or 200 mg/ml) or PMA in either ethanol or acetone (0.2 mg/ml) applied to the inner and outer surfaces of each pinna (i.e. 0.5 mg or 2 mg AA or 2 μg PMA per ear). Mice were anaesthetised again to re-measure the ears at 1 hr post-AA application and 5 hr after PMA. The difference in ear swelling pre- and post-application of inflammogen for each ear was calculated, and the average for the two ears of each mouse taken. The difference in mean swelling of each test group compared to the group given vehicle alone was calculated using a general ANOVA using Dunnett's Multiple Comparison test when multiple compounds were tested in the one experiment or a two-tailed unpaired t-test when only one compound was tested (Prism 4, Graphpad Software).

TXA2 = TXA2 synthesis in RAW 264.7 (ELISA); format: cell-based, mouse; settings: LPS 50 ng/ml, 16 hrs
Procedure: (§2) The mouse macrophage cell line RAW 264.7 was cultured in DMEM supplemented with foetal calf serum (FCS), 2 mM glutamine and 50 U/ml penicillin/streptomycin. Cells were treated with either test compounds (in 0.025% DMSO) or vehicle alone, and added one hour before 50 ng/ml LPS. After incubation for 16 hrs, culture media was collected for PGE2 or TXB2 measurement by ELISA (Cayman Chemical), and TNFα measurement using an ELISA (Becton Dickinson).

iNOS = assay: NO synthesis in LPS-stimulated RAW 264.7 (Griess); format: cell-based, mouse; settings: LPS 50 ng/ml, 16 hrs
Procedure: The mouse macrophage cell line RAW 264.7 was cultured in DMEM supplemented with foetal calf serum (FCS), 2 mM glutamine and 50 U/ml penicillin/streptomycin. Cells were treated with either the compounds of the formula (I) (in 0.025% DMSO) or vehicle alone, and added one hour before 50 ng/ml LPS, which induces iNOS and the production of NO. After incubation for 16 hrs, culture media was collected. Nitrite concentration is a quantitative indicator of NO production and was determined by the Griess Reaction. Briefly, 100 μL of Griess reagent was added to 50 μL of each supernatant in duplicate. The absorbance at 550 nm was measured (Molecular Devices, SpectraMax 250 microplate spectrophotometer, CA, USA), and nitrite concentrations were determined against a standard curve of sodium nitrite.

[1] = Pharmacokinetics after a single oral dose in mice; format: in vivo, mouse; settings: urine, oral 25 mg/kg; for AUC: mouse
AA-induced ear swelling = assay: Murine ear inflammation assay, arachidonic acid (AA); format: in vivo, mouse; settings: 25 mg/kg i/p; for Change in ear thickness (mean ± SD, ×0.01 mm): 1 hr post-AA
Procedure: as §1

PGE2 = PGE2 synthesis in RAW 264.7 (ELISA); format: cell-based, mouse; settings: LPS 50 ng/ml, 16 hrs
Procedure: as §2

eNOS = eNOS mRNA expression in HCAECs (real-time PCR); format: cell-based, human; settings: 10 μM, 24 hr; for Average increase in the expression of eNOS: average of experiments
Procedure: HCAECs were grown as described above. Because cell viability was less than 100% at 30 and 100 μM, eNOS experiments were conducted at one concentration (10 μM). After incubation, total RNA was extracted using TRI reagent (Sigma, St Louis, Mo., USA), following the manufacturer's protocol. RNA was quantitated and normalized to 100 ng/μl using the SYBR Green II assay (Molecular Probes, Eugene, Oreg., USA) before being reverse transcribed using iScript (Bio-Rad, Hercules, Calif., USA). eNOS (sense 5′-CCATCTACAGCTTTCCGGCGC-3′ and antisense 5′-CTCTGGGGTGGCCTTCAGCA-3′) and 18S (sense 5′-CGGCTACCACATCCAAGGAA-3′ and antisense 5′-GCT GGA ATT ACC GCG GCT-3′) mRNA levels were determined by real-time PCR using iQ SYBR Green Supermix (Bio-Rad) in an iCycler iQ RealTime thermocyler detection system (Bio-Rad Laboratories). The cycling parameters were 95° C. for 30 seconds, 62° C. for 30 seconds, and 72° C. for 30 seconds for 40 cycles, and real-time data was collected at each cycle. There were six replicates.

NFκB = NFκB promoter activity in transfected THP-1 cells (beta-lactamase reporter); format: cell-based, human; settings: for Inflammatory index: TNFα 7.5 ng/ml, 5 h
Procedure: The assay utilizes a genetically modified THP-1 cell line and GeneBLAzer® beta-lactamase technology (Invitrogen Corp). The human THP-1 monocyte/macrophages contain a stably-transfected beta-lactamase reporter gene under control of the NFkB response element. They respond to stimulation with TNFα, which leads to activation of the NFkB signaling pathway. Co-incubation of cells with TNFα and test material allows quantitative determination of the ability of test material to inhibit TNFα-stimulated beta-lactamase production. An inflammatory index was calculated as the ratio of beta-lactamase product to beta-lactamase substrate.
In brief, genetically modified THP-1 cells were seeded into wells of a 96-well plate (50×10^3 cells/well) in the presence of RPMI 1640 medium (70 μl). TNFα was added to each well (10 μl) to give a final concentration of 7.5 ng/ml. Dialyzed bovine serum was added (10 μl). Test compounds were dissolved in DMSO (10 μL) (5 wells). Each plate contained a no-cell control (4 wells), a no-serum control (4 wells) and two serum controls. Plates were incubated for 5 h at 37° C. to allow for NFkB-stimulated beta-lactamase production. LiveBLAzer™ FRET B/G Substrate (CCF4-AM) substrate was then added to the assay. CCF4-AM is a Förster resonance energy transfer (FRET) based substrate for beta-lactamase developed by Invitrogen Corp. Once CCFA-AM enters a cell, it is converted to negatively charged CCF4 by endogenous esterases. Excitation of this substrate at 409 nm leads to efficient FRET between the coumarin and fluorescein moieties, resulting in a green fluorescence detectable at 530 nm. The presence of beta-lactamase leads to cleavage of CCF4 and results in a loss of FRET, resulting in a robust blue fluorescent signal detectable at 460 nm. Thus, activity of beta-lactamase (a marker of NFkB-promoter activity) is measured as a product to substrate ratio (blue/green fluorescence ratio: 460 nm/530 nm).

| Structure (SMILES) | % Change compared with vehicle (PMA-induced ear swelling) [%] | Change in ear thickness (mean ± SD, ×0.01 mm) (PMA-induced ear swelling) [×0.01 mm] | TXB2 (TXA2; 1 μM) [pg/mL] | TXB2 (TXA2; 10 μM) [pg/mL] | NO (iNOS; 10 μM) [µM] | AUC [1] [µM·h] | [max]free (μM, mean ± SD) [1] [µM] | % Change compared with vehicle (AA-induced ear swelling) [%] | Change in ear thickness (mean ± SD, ×0.01 mm) (AA-induced ear swelling) [×0.01 mm] | PGE2 (PGE2; 1 μM) [pg/mL] | PGE2 (PGE2; 10 μM) [pg/mL] | Average increase in the expression of eNOS (eNOS) [%] | Increase in expression of eNOS mRNA relative to control cells (eNOS; EXPT 1) | Increase in expression of eNOS mRNA relative to control cells (eNOS; EXPT 2) | Inflammatory index (NFκB; 10 μM, vehicle 8.92 ± 0.22) | Inflammatory index (NFκB; 30 μM, vehicle 11.56 ± 0.49) | Inflammatory index (NFκB; 100 μM, vehicle 9.48 ± 0.14) | also measured |
| --- | --- | --- | --- | --- | --- | --- | --- | --- | --- | --- | --- | --- | --- | --- | --- | --- | --- | --- |
| O=C(O)C1CCCN1Cc1cc2c(cc1O)OCC(c1ccc(O)cc1)=C2 (centres unmarked) [Compound (3)] | 0 | 37.9 ± 2.6 | 374.8 ± 132.29 | 287.04 ± 75.58 | 21.79 ± 0.82 | 34 | 3.9 ± 2.4 | −5.9 | 22.2 ± 1.9 | 2890.02 ± 320.91 | 2031.43 ± 261.59 | 325 | 372 ± 138% (0.00001) | 277 ± 212 (0.002) | 8.88 ± 0.05 | 11.45 ± 0.86 | 8.59 ± 0.24 | NO (iNOS; 1 μM): 31.33 ± 0.16 µM |
| CN(C)Cc1cc2c(cc1O)OCC(c1ccc(O)cc1)=C2 [Compound (1)] | −12.3 | 28.9 ± 3.071 | 1333.17 ± 121.78 | 1149.14 ± 480.27 | 5.29 ± 0.15 | 9.3 | 5.6 ± 6.7 | −7.0 | 24.1 ± 0.1 | 2601.37 ± 153.53 | 847.96 ± 144.83 | 45 | 52 ± 25% (0.0001) | 53 ± 49 (0.009) | 9.12 ± 0.26 | 10.05 ± 0.36 | 2.75 ± 0.11 | NO (μM) (iNOS; 1 μM): 17.27 ± 0^ μM; Increase in expression of eNOS mRNA relative to control cells (eNOS; EXPT 3): 30 ± 30 (0.014); Effect on promoter activity of NFκB (in words) (NFκB; THP-1 cells, TNFα-stimulated): significantly reduced the promoter activity of NFκB at 10 μM and 100 μM |

From patent US20120003270A1, “6-SUBSTITUTED ISOFLAVONOID COMPOUNDS AND USES THEREOF” (priority 2008, published 2012)
